From PubChem BioAssay (NCI)
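In this assay, cells in 96-well plates receive the compound at five concentrations for 48 hours. Endpoints are linearly interpolated between the surrounding concentrations. GI50 is the concentration that inhibits growth by half. TGI is the concentration that stops growth completely.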

Tests used:
Assay in all cases: inhibition of tumour cell growth, NCI panel, 48 h; in the data active = GI50 below about 0.43 µM; inactive = the rest
786-0 renal = tested on: 786-0 renal
A498 renal = tested on: A498 renal
A549 NSCLC = tested on: A549 NSCLC
ACHN renal = tested on: ACHN renal
BT-549 breast = tested on: BT-549 breast
CAKI-1 renal = tested on: CAKI-1 renal
CCRF-CEM leukemia = tested on: CCRF-CEM leukemia
COLO 205 colon = tested on: COLO 205 colon
DU-145 prostate = tested on: DU-145 prostate
EKVX NSCLC = tested on: EKVX NSCLC
HCC-2998 colon = tested on: HCC-2998 colon
HCT-116 colon = tested on: HCT-116 colon
HCT-15 colon = tested on: HCT-15 colon
HL-60(TB) leukemia = tested on: HL-60(TB) leukemia
HOP-62 NSCLC = tested on: HOP-62 NSCLC
HOP-92 NSCLC = tested on: HOP-92 NSCLC
HS 578T breast = tested on: HS 578T breast
HT29 colon = tested on: HT29 colon
IGROV1 ovarian = tested on: IGROV1 ovarian
K-562 leukemia = tested on: K-562 leukemia
KM12 colon = tested on: KM12 colon
LOX IMVI melanoma = tested on: LOX IMVI melanoma
M14 melanoma = tested on: M14 melanoma
MALME-3M melanoma = tested on: MALME-3M melanoma
MCF7 breast = tested on: MCF7 breast
MDA-MB-231 breast = tested on: MDA-MB-231 breast
MDA-MB-435 = tested on: MDA-MB-435
MDA-MB-468 breast = tested on: MDA-MB-468 breast
MOLT-4 leukemia = tested on: MOLT-4 leukemia

COc1ccc(-c2cc(-c3cc(OC)c(OC)c(OC)c3)[nH]c(=O)c2C#N)cc1
97.3 µM: TGI (MALME-3M melanoma)
56.8 µM: TGI (HS 578T breast)
20.1 µM: TGI (786-0 renal)
18.4 µM: TGI (MDA-MB-231 breast)
> 100 µM: TGI (A549 NSCLC) | TGI (CCRF-CEM leukemia) | TGI (COLO 205 colon) | TGI (DU-145 prostate) | TGI (EKVX NSCLC) | TGI (HCC-2998 colon) | TGI (HCT-116 colon) | TGI (HCT-15 colon) | TGI (HL-60(TB) leukemia) | TGI (HT29 colon) | TGI (K-562 leukemia) | TGI (KM12 colon) | TGI (M14 melanoma) | TGI (MCF7 breast) | TGI (MDA-MB-435)
48 µM: TGI (BT-549 breast)
24.1 µM: TGI (HOP-62 NSCLC)
31.4 µM: TGI (CAKI-1 renal)
47 µM: TGI (MDA-MB-468 breast)
32.2 µM: TGI (ACHN renal)
8.17 µM: TGI (HOP-92 NSCLC)
47.4 µM: TGI (LOX IMVI melanoma)
23.4 µM: TGI (A498 renal)
inactive: GI50 (786-0 renal) 4.88 µM | GI50 (A498 renal) 3.81 µM | GI50 (A549 NSCLC) 14 µM | GI50 (ACHN renal) 9.76 µM | GI50 (BT-549 breast) 16.5 µM | GI50 (CAKI-1 renal) 6.96 µM | GI50 (CCRF-CEM leukemia) > 100 µM | GI50 (COLO 205 colon) > 100 µM | GI50 (DU-145 prostate) 88.1 µM | GI50 (EKVX NSCLC) 21.3 µM | GI50 (HCC-2998 colon) > 100 µM | GI50 (HCT-116 colon) 55.9 µM | GI50 (HCT-15 colon) 96.3 µM | GI50 (HL-60(TB) leukemia) > 100 µM | GI50 (HOP-62 NSCLC) 7.08 µM | GI50 (HOP-92 NSCLC) 1.97 µM | GI50 (HS 578T breast) 5.67 µM | GI50 (HT29 colon) 71.6 µM | GI50 (IGROV1 ovarian) 15.1 µM | GI50 (K-562 leukemia) > 100 µM | GI50 (KM12 colon) > 100 µM | GI50 (LOX IMVI melanoma) 14 µM | GI50 (M14 melanoma) > 100 µM | GI50 (MALME-3M melanoma) 19.3 µM | GI50 (MCF7 breast) 23.8 µM | GI50 (MDA-MB-231 breast) 3.76 µM | GI50 (MDA-MB-435) > 100 µM | GI50 (MDA-MB-468 breast) 17.8 µM | GI50 (MOLT-4 leukemia) > 100 µM
76.3 µM: TGI (IGROV1 ovarian)
